Laboratory results from patent US12195427B2, “MASP-2 inhibitors and methods of use” (priority 2018, dated 2025).

Tests used:
[1] = system: Lectin Pathway; assay: Lectin Pathway Activation Assay in Human Serum (mannan-coated ELISA, C3c detection); assay type: biochemical; details: 1% human serum
Experimental: Microtiter ELISA plate was coated with mannan from Saccharomyces cerevisiae (Sigma-Aldrich, M7504) for overnight at 4° C. in coating buffer [15 mM Na2CO3, 35 mM NaHCO3].

[2] = target: MASP-2 CCP2-SP (Homo sapiens (Human), UniProt O00187); assay: MASP-2 co-crystallization, X-ray crystallography and structure analysis (H-bonds, van der Waals contacts); set-up: van der Waals contact distance, MASP-2 HIS 483 atom CD2 / van der Waals contact distance, MASP-2 HIS 483 atom NE2 / van der Waals contact distance, SER 654 C to compound atom / van der Waals contact distance, SER 654 O to compound atom / van der Waals contact distance, TRP 655 C to compound atom / van der Waals contact distance, MASP-2 GLY 528 atom CA / van der Waals contact distance TRP 655 atom CZ3 / van der Waals contact distance TRP 655 atom N / van der Waals contact distance TRP 655 atom CE3 / van der Waals contact distance GLY 656 atom C / van der Waals contact distance GLY 656 atom CA / van der Waals contact distance GLY 656 atom O / van der Waals contact distance, MASP-2 TYR 607 atom CD1 / van der Waals contact distance, MASP-2 PRO 606 atom O / d(C3,CA1) / d(CA1,N1)2 / d(H4,O1) / d(H4,O2) / d(O1,O2) / d(CA1,O2) / d(CA6,O1) / d(CA6,O2) / d(CA1,C5) / d(O2,H3) / d(N2,C2) / d(CA5,N2) / d(N2,C4) / d(N2,C6) / d(N2,CA3) / d(N2,O3) / d(O4,H2): unit not given beside the values;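 as to Ligand-pharmacophore element distance, pharmacophore element C2: distance from averaged pharmacophore element to bound ligand; missing value means element absent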;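 as to Ligand-pharmacophore element distance, pharmacophore element C3: distance from averaged pharmacophore element to bound ligand; missing value means element absent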;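 as to Ligand-pharmacophore element distance, pharmacophore element C4: distance from averaged pharmacophore element to bound ligand; missing value means element absent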;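 as to Ligand-pharmacophore element distance, pharmacophore element C5: distance from averaged pharmacophore element to bound ligand; missing value means element absent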
Summary of the method: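 Human MASP-2 CCP2-SP (± 6His) expressed in E. coli and crystallized; crystals soaked in crystallization solution containing inhibitor, cryoprotected with 20% glycerol or frozen directly. Synchrotron data at 1.0 wavelength; molecular replacement from 1Q3X, partial refinement; one ligand pose analyzed; LigPlot+ contacts may include H-bonds.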

[3] = Table A5-1 pharmacophore: distance between elements, S2/S1 region
[4] = Table A5-2 pharmacophore distance, S3/S4 region
[5] = Table A7-1, between pharmacophore elements of the bound compound
[6] = Table A8-6, nearest protein atom in cell to the left

Sequence of MASP-2 CCP2-SP (O00187 445-686): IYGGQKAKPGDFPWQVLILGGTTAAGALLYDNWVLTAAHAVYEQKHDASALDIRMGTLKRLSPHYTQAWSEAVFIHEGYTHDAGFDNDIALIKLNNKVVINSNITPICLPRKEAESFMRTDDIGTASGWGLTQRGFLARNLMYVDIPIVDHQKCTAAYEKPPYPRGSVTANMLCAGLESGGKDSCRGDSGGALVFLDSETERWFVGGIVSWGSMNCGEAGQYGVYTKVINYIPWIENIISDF
Sequence of MASP-2 CCP2-SP (O00187 364-432 partner): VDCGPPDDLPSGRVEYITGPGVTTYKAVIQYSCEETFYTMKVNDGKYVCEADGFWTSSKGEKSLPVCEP

In the case of C[C@H](NC(=O)[C@H]1C[C@@H](c2ccccc2)CCN1)C(=O)NCc1ccc(C(=N)N)cc1 (stereo in doubt) [compound 1065], the IC50 [1] is reported as < 50 nM, the “H-bond distance to MASP-2 ASP 627 atom OD1” value ([2]; Table A1 (H-Bonds), ASP 627 OD1) is reported as 3.14 and the “H-bond distance to MASP-2 ASP 627 atom OD2” value ([2]; Table A1 (H-Bonds), ASP 627 OD2) is reported as 3.08. For the same molecule, the “H-bond distance to MASP-2 GLY 656 atom N” value ([2]; Table A1 (H-Bonds), GLY 656 N) was 3.31, the “H-bond distance to MASP-2 SER 654 atom O” value ([2]; Table A1 (H-Bonds), SER 654 O) was 2.92 and the “van der Waals contact distance, MASP-2 HIS 483 atom CD2” value ([2]; Table A2-1) was 3.67. For the same molecule, the “van der Waals contact distance, MASP-2 amino acid atom to compound atom” value ([2]; Table A2-9, ARG 630, AA atoms CG, CZ) was 3.55, the “van der Waals contact distance, SER 654 C to compound atom” value ([2]; Table A2-11) was 3.78 and the “van der Waals contact distance, VAL 653 CG1 to compound atom” value ([2]; Table A2-11) was 3.6. The “van der Waals contact distance, TRP 655 CA to compound atom” value ([2]; Table A2-12) was 3.46, the “van der Waals contact distance TRP 655 atom CE3” value ([2]; Table A2-13, MASP-2 TRP 655 CE3, compound atom in line below) was 3.6 and the “Ligand-pharmacophore element distance, pharmacophore element C2” value ([2]; Table A4-1, element C2) was 0.11. For the same molecule, the “Ligand-pharmacophore element distance, pharmacophore element C3” value ([2]; Table A4-1, element C3) was 0, the “Ligand-pharmacophore element distance, pharmacophore element C4” value ([2]; Table A4-1, element C4) was 0 and the “Ligand-pharmacophore element distance, pharmacophore element C5” value ([2]; Table A4-1, element C5) was 0. The “Ligand-pharmacophore element distance, pharmacophore element C6” value ([2]; Table A4-1, element C6) was 0, the “Ligand-pharmacophore element distance, pharmacophore element C7” value ([2]; Table A4-1, element C7) was 0 and the “Ligand-pharmacophore element distance, pharmacophore element CA1” value ([2]; Table A4-1, element CA1) was 0.88. The “Ligand-pharmacophore element distance, pharmacophore element CA2” value ([2]; Table A4-1, element CA2) was 0.1, the “Ligand-pharmacophore element distance, pharmacophore element CA3” value ([2]; Table A4-1, element CA3) was 0 and the “Ligand-pharmacophore element distance, pharmacophore element CA4” value ([2]; Table A4-1, element CA4) was 0. For the same molecule, the “Ligand-pharmacophore element distance, pharmacophore element CA5” value ([2]; Table A4-1, element CA5) was 0, the “Ligand-pharmacophore element distance, pharmacophore element CA6” value ([2]; Table A4-1, element CA6) was 0 and the “d(CA1,N1)” value [2, 3] was 3.47. The “d(CA1,O1)” value [2, 3] was 4.32, the “d(CA1,O2)” value [2, 3] was 4.20 and the “d(H4,O1)” value [2, 3] was 6.39. The “d(H4,O2)” value [2, 3] was 5.35, the “d(O1,O2)” value [2, 3] was 3.30 and the “d(N2,C2)” value [2, 4] was 1.40. The “d(N2,CA2)” value [2, 4] was 5.75, the “d(O2,H3)” value [2, 4] was 4.40 and the “d(O2,N2)” value [2, 4] was 2.83. For the same molecule, the “a(CA1, O1, O2)” value ([2]; Table A6-1 pharmacophore angle) was 110.77, the “a(O1, O2, H4)” value ([2]; Table A6-1 pharmacophore angle) was 148.95 and the “A(N1, CA1, O1) a)” value ([2]; Table A6-1 pharmacophore angle, all compounds with protonatable center N1 except Methyl-amino-pyridine) was 165.45. The “a(O1, O2, H3)” value ([2]; Table A6-2 pharmacophore angle) was 145.76, the “a(O1, O2, N2)” value ([2]; Table A6-2 pharmacophore angle) was 144.81 and the “a(O2, N2, C2)” value ([2]; Table A6-2 pharmacophore angle) was 124.85. For the same molecule, the “a(O2, N2, CA2)” value ([2]; Table A6-2 pharmacophore angle) was 154.55, the “Pharmacophore torsion angle a(H4, O1, O2, H3)” value [2, 5] was 44.38 and the “Pharmacophore torsion angle a(H4, O1, O2, N2)” value [2, 5] was 129.83. The “Pharmacophore torsion angle a(N1, CA1, O2, H4)” value [2, 5] was −89.34, the “Pharmacophore torsion angle a(O1, H4, O2, CA1)” value [2, 5] was −21.94 and the “Pharmacophore torsion angle a(O1, O2, N2, C2)” value [2, 5] was 124.96. The “Pharmacophore torsion angle a(O1, O2, N2, CA2)” value ([2]; Table A7-2, between pharmacophore elements of the bound compound) was 129.88, the “Pharmacophore protein distance to MET_658 (first MET_658 column)” value ([2]; Table A8-6, 6th residue column, nearest protein atom in cell to the left) was 3.34 and the “Pharmacophore protein distance to MET_658 (second MET_658 column)” value ([2]; Table A8-6, 9th residue column, nearest protein atom in cell to the left) was 3.79. The “Pharmacophore protein distance to GLY_528” value [2, 6] was 3.56, the “Pharmacophore protein distance to PHE_529” value [2, 6] was 2.70 and the “Pharmacophore protein distance to PRO_608” value [2, 6] was 3.75. The “Pharmacophore protein distance to SER_611” value [2, 6] was 2.57 and the “Pharmacophore protein distance to TRP_655” value ([2]; Table A8-6, pharmacophore elements C6, CA3, O3, H1, nearest protein atom in cell to the left) was 3.87.
